The source of these data is BigSolDB 2.1.

For orientation: solubility (mole fraction) means solubility expressed as the solute's share of all molecules.

Regarding `Cc1cc(C)c(S(=O)(=O)NC23CC4CC(CC(C4)C2)C3)c(C)c1`, the solubility (mole fraction) (in n-hexane, 293.15 K) stood at 0.000265; the solubility (mole fraction) (in n-hexane, 298.15 K) was 0.000307; the solubility (mole fraction) (in n-hexane, 303.15 K) is 0.000366; the solubility (mole fraction) (in n-hexane, 308.15 K) came out at 0.000444; the solubility (mole fraction) (in n-hexane, 313.15 K) stood at 0.000495; the solubility (mole fraction) (in n-octanol, 293.15 K) was 0.00383. The solubility (mole fraction) is, setting by setting: (in n-octanol, 298.15 K) 0.00452; (in n-octanol, 303.15 K) 0.00562; (in n-octanol, 308.15 K) 0.0068; (in n-octanol, 313.15 K) 0.00809.

Consider `CC12CC3CC(C)(C1)CC(NS(=O)(=O)c1ccc([N+](=O)[O-])cc1)(C3)C2`, for which the solubility (mole fraction) is, setting by setting: (in n-hexane, 293.15 K) 4.22e-05; (in n-hexane, 298.15 K) 5.67e-05; (in n-hexane, 303.15 K) 6.92e-05; (in n-hexane, 308.15 K) 8.55e-05; (in n-hexane, 313.15 K) 0.000105; (in n-octanol, 293.15 K) 0.00362. Also, the solubility (mole fraction) by setting is: (in n-octanol, 298.15 K) 0.00423; (in n-octanol, 303.15 K) 0.00511; (in n-octanol, 308.15 K) 0.0058; (in n-octanol, 313.15 K) 0.00664.
